1 compound from patent US20210177952A1, “METHOD AND COMPOSITION FOR STIMULATING IMMUNE RESPONSE” (BeyondSpring Pharmaceuticals, Inc., priority 2018, published 2021) can be followed below.

In this assay the test system is CD14^+ dendritic cells. The assay can be described thus: FACS evaluation of dendritic cell maturation markers CD40, CD80, MHCII and CD86. The assay is classed as cell-based, Human. Here is the method:
ISOLATION OF CD14^+ MONOCYTES FROM PBMCs: On Day 1 of the study, PBMC cells were obtained from a human donor according to (1a)-(1d) above. Monocytes were then isolated from these PBMCs on the same day (Day 1) according to steps (2a)-(2k) as follows: (2a) The number of the PBMC cells was determined. (2b) The cell suspension was centrifuged at 300×g for 10 minutes; and the supernatant was aspirated completely. (2c) The cell pellet was re-suspended in 80 μL of FACS buffer per 10^7 total cells. (2d) Per 10^7 total cells, 20 μL of CD14 MicroBeads were added. (2e) Mix well and incubate for 15 minutes in the refrigerator (2 to 8° C.). (2f) The cells were washed by adding 1 to 2 mL of FACS buffer per 10^7 cells and centrifuged at ×1500 rpm for 10 min. (2g) The cells were re-suspended up to 10^8 cells in 500 μL of FACS buffer. (2h) The column was placed in magnetic field of a suitable MACS Separator. (2i) The column was prepared by rinsing with 3 mL of FACS buffer. (2j) The cell suspension was applied onto the column. Unlabeled cells that pass through were collected and the column was washed for three times each with 3 mL of FACS buffer. Total effluent, which was the unlabeled cell fraction, was collected. Washing steps were performed by adding FACS buffer three times. New buffer was added only when the column reservoir became empty. (2k) The column was then removed from the separator and placed on a suitable collection tube. 5 mL of FACS buffer was pipetted onto the column. The magnetically labeled cells were immediately flushed out by firmly pushing the plunger into the column. This fraction represented the CD14 positive monocytes.
DIFFERENTIATION OF MONOCYTES INTO CD14^+ DENDRITIC CELLS: From the CD14 positive monocytes obtained from (2k), dendritic cells (DCs) were differentiated according to steps (2l)-(2p) as follows: (21) 5×10^6 cells were re-suspended per 5 mL of ImmunoCult™ DC Differentiation Medium and mixed well. Then 5 mL of the cell suspension was added to a T-25 cm^2 flask and the cells were incubated for 3 days at 37° C. and 5% CO2. (2m) Meanwhile, in parallel, the monocytes were treated with 3, 1, 0.3, 0.1, 0.01 and 0 μM plinabulin, respectively, in the wells of a 6-well plate and incubated for 3 days. (2n) On Day 4, the medium was removed from the T-25 cm^2 flask by pipetting and added to a 14-mL centrifuge tube. 5 mL of fresh ImmunoCult™ DC Differentiation Medium was quickly added to the culture flask. (2o) The 14 mL tube containing medium and cells (from step (2n)) was centrifuged at 300×g for 10 min. The supernatant was removed and discarded. Cells were resuspended in a small volume (i.e. 50 μL or up to 10% of the original volume) of fresh ImmunoCult™ DC Differentiation Medium and returned to the culture flask in order to save non-adherent or loosely adherent cells. The cells were then incubated at 37° C. for 2 days. (2p) Also on Day 4, 90% differentiation medium for the DCs were removed from the 6-well plate, and 90% fresh differentiation medium were added. The cells were treated with 3, 1, 0.3, 0.1, 0.01 and 0 μM plinabulin as stated above in (2m) (Study Arm #1). After another 2 days incubation, the dendritic cell maturation was evaluated by FACS for CD40, CD80, MHCII and CD86. The rest cells continued without treatment to steps (4a)-(4d) below for MLR assay. […]

The mark [1] stands for this setting: treated during differentiation or maturation.

For `CC(C)(C)c1[nH]cnc1/C=c1\[nH]c(=O)/c(=C/c2ccccc2)[nH]c1=O` [Plinabulin, (3Z,6Z)-3-Benzylidene-6-{[5-(2-methyl-2-propanyl)-1H-imidazol-4-yl]methylene}-2,5-piperazinedione], for the setting “cells treated during DC maturation (Study Arm #A2)”, the “CD86 expression on DCs” value is recorded as “increased CD86 expression on DCs”. For the same compound, the “CD86 expression on DCs” value (cells treated during differentiation from CD14 cells (Study Arm #A1)) is listed as “increased CD86 expression on DCs”. In addition, under setting [1], the “CD40 expression on DCs” value was “no discernible increase”, the “CD80 expression on DCs” value is “no discernible increase” and the “MHCII expression on DCs” value was “no discernible increase”.
